In one series the test system is CHIKV. The series is described as follows: antiviral activity (EC50), Table 1. Type of series: cell-based. The following applies: Chikungunya virus.
A short description of series [1]: cytotoxicity (CC50), Table 1.

One may read the EC50 as the concentration that produces a half-maximal response. Read a high EC50 as lower potency in that assay. As a reminder, the CC50 is the concentration at which the toxic effect on the cells reaches its halfway point. A low value points to harm at low concentration. In the series with CHIKV, `COc1cc2c(cc1C(=O)Nc1cc(C(C)(C)C)[nH]n1)CCCCC2` [Compound 26, N-(5-(tert.-butyl)-1H-pyrazol-3-yl)-3-methoxy-6,7,8,9-tetrahydro-5H-benzo[7]annulene-2-carboxamide] came in with an EC50 of 7.03 µM. In series [1], this compound returned a CC50 of 15.5 µM.

Take `CCn1nc(NC(=O)c2cc3c(nc2OC)CCCCC3)cc1C` [Compound 39, N-(1-ethyl-5-methyl-1H-pyrazol-3-yl)-2-methoxy-6,7,8,9-tetrahydro-5H-cyclohepta[b]pyridine-3-carboxamide]: the response with CHIKV was half-maximal at 30.7 µM (EC50). Moreover, in series [1], the CC50 was > 40 µM.

Take `CCn1ccc(NC(=O)c2cc3c(cc2OC)CCCCC3)n1` [Compound 35, N-(1-ethyl-1H-pyrazol-3-yl)-3-methoxy-6,7,8,9-tetrahydro-5H-benzo[7]annulene-2-carboxamide]: the EC50 with CHIKV was 17.4 µM. In addition, the CC50 in series [1] is > 40 µM.

With `CCOc1cc2c(cc1C(=O)Nc1ccc(C(C)(C)C)cc1)CCCCC2` [Compound 21, N-(4-(tert.-butyl)phenyl)-3-ethoxy-6,7,8,9-tetrahydro-5H-benzo[7]annulene-2-carboxamide], the EC50 with CHIKV came out at 29.9 µM. Besides, the CC50 in series [1] was > 40 µM.

For `COc1cc2c(cc1C(=O)Nc1ccc(C(O)(C(F)(F)F)C(F)(F)F)cc1)CCCCC2` [Compound 12, N-(4-(1,1,1,3,3,3-hexafluoro-2-hydroxypropan-2-yl)phenyl)-3-methoxy-6,7,8,9-tetrahydro-5H-benzo[7]annulene-2-carboxamide], the concentration giving a half-maximal response (EC50) with CHIKV was > 40 µM. The CC50 in series [1] is > 40 µM.

`COc1cc2c(cc1C(=O)Nc1sc(C(C)(C)C)cc1C#N)CCCCC2` [Compound 13, N-(5-(tert.-butyl)-3-cyanothiophen-2-yl)-3-methoxy-6,7,8,9-tetrahydro-5H-benzo[7]annulene-2-carboxamide]: the EC50 in the series with CHIKV is > 40 µM. In addition, the CC50 in series [1] was > 40 µM.

Consider `CCn1nc(NC(=O)c2cc3c(cc2O)CCCCC3)cc1C` [Compound 27, N-(1-ethyl-5-methyl-1H-pyrazol-3-yl)-3-hydroxy-6,7,8,9-tetrahydro-5H-benzo[7]annulene-2-carboxamide], for which, in the series with CHIKV, the EC50 was > 40 µM. For the same compound, the CC50 in series [1] was > 40 µM.

In the case of `COc1cc2c(cc1C(=O)NNc1ccc(C(C)(C)C)cc1)CCCCC2` [Compound 30], the EC50 with CHIKV is > 40 µM. In addition, in series [1], the CC50 is > 40 µM.

`CCn1nc(NC(=O)c2cc3c(cc2OC)CCCCC3)cc1C` [Compound 5, N-(1-ethyl-5-methyl-1H-pyrazol-3-yl)-3-methoxy-6,7,8,9-tetrahydro-5H-benzo[7]annulene-2-carboxamide] showed an EC50 in the series with CHIKV of 9.9 µM. The CC50 in series [1] was > 40 µM.

In the series on CHIKV, `COc1cc2c(cc1C(=O)Nc1ccc(C(C)(C)C)cc1)CCCCC2` [Compound 1, N-(4-(tert.-butyl)phenyl)-3-methoxy-6,7,8,9-tetrahydro-5H-benzo[7]annulene-2-carboxamide] showed an EC50 of 0.32 µM. In addition, the CC50 in series [1] was > 40 µM.

On to `COc1cc2c(cc1C(=O)Nc1ccc(C(C)(C)C)cn1)CCCCC2` [Compound 11, N-(5-(tert.-butyl)pyridin-2-yl)-3-methoxy-6,7,8,9-tetrahydro-5H-benzo[7]annulene-2-carboxamide], for which the EC50 in the series with CHIKV is 1.14 µM. The cytotoxic concentration (CC50) in series [1] was > 40 µM.

The compound `COc1cc2c(cc1C(=O)Nc1ccc(C(C)(C)O)cc1)CCCCC2` [Compound 10, N-(4-(2-hydroxypropan-2-yl)phenyl)-3-methoxy-6,7,8,9-tetrahydro-5H-benzo[7]annulene-2-carboxamide] displayed an EC50 in the series on CHIKV of 1.8 µM. In addition, in series [1], it took 24.9 µM to reach half-maximal cytotoxicity (CC50).

`COc1cc2c(cc1CC(=O)N1CCC(F)(F)CC1)CCCCC2` [Compound 33, 1-(4,4-difluoropiperidin-1-yl)-2-(3-methoxy-6,7,8,9-tetrahydro-5H-benzo[7]annulen-2-yl)ethan-1-one]: in the series on CHIKV, the EC50 was > 40 µM. Besides, the CC50 in series [1] was > 40 µM.

For `COc1cc2c(cc1C(=O)Nc1ccc(-c3ccccc3)cn1)CCCCC2` [Compound 16, 3-methoxy-N-(5-phenylpyridin-2-yl)-6,7,8,9-tetrahydro-5H-benzo[7]annulene-2-carboxamide], the EC50 in the series on CHIKV was > 40 µM. Besides, the CC50 in series [1] was > 40 µM.

The compound `CCn1nc(C(F)(F)F)c(NC(=O)c2cc3c(cc2OC)CCCCC3)c1C` [Compound 6, N-(1-ethyl-5-methyl-3-(trifluoromethyl)-1H-pyrazol-4-yl)-3-methoxy-6,7,8,9-tetrahydro-5H-benzo[7]annulene-2-carboxamide] gave an EC50 with CHIKV of 35.2 µM. Further, the CC50 in series [1] was > 40 µM.

On to `CC(C)(C)c1ccc(NC(=O)c2cc3c(cc2OC(F)F)CCCCC3)cc1` [Compound 17, N-(4-(tert.-butyl)phenyl)-3-(difluoromethoxy)-6,7,8,9-tetrahydro-5H-benzo[7]annulene-2-carboxamide], for which, in the series on CHIKV, the EC50 was > 40 µM. Besides, the CC50 in series [1] was > 40 µM.

`COc1cc2c(cc1C(=O)Nc1ccc(C(C)(C)C#N)cc1)CCCCC2` [Compound 24, N-(4-(2-cyanopropan-2-yl)phenyl)-3-methoxy-6,7,8,9-tetrahydro-5H-benzo[7]annulene-2-carboxamide] came in with an EC50 in the series on CHIKV of 0.2 µM. Also, the CC50 in series [1] is > 40 µM.

On to `COc1cc2c(cc1C(=O)Nc1cccnc1SC)CCCCC2` [Compound 34, 3-methoxy-N-(2-(methylthio)pyridin-3-yl)-6,7,8,9-tetrahydro-5H-benzo[7]annulene-2-carboxamide], for which, in the series with CHIKV, the EC50 was > 40 µM. In series [1], the CC50 is > 40 µM.

`COc1cc2c(cc1C(=O)Nc1cc(C)n(C(C)(C)C)n1)CCCCC2` [Compound 4, N-(1-(tert.-butyl)-5-methyl-1H-pyrazol-3-yl)-3-methoxy-6,7,8,9-tetrahydro-5H-benzo[7]annulene-2-carboxamide] displayed an EC50 with CHIKV of 3.9 µM. The compound further registered a CC50 in series [1] of 22.3 µM.

For the compound `COc1cc2c(cc1C(=O)NCc1ccc(C(C)(C)C)cc1)CCCCC2` [Compound 18, N-(4-(tert.-butyl)benzyl)-3-methoxy-6,7,8,9-tetrahydro-5H-benzo[7]annulene-2-carboxamide], in the series with CHIKV, the EC50 was 3.5 µM. Also, the CC50 in series [1] is > 40 µM.

With `CCc1cc2c(cc1C(=O)Nc1ccc(C(C)(C)C)cc1)CCCCC2` [Compound 22, N-(4-(tert.-butyl)phenyl)-3-ethyl-6,7,8,9-tetrahydro-5H-benzo[7]annulene-2-carboxamide], the EC50 in the series on CHIKV was > 40 µM. Further, the CC50 in series [1] is > 40 µM.

Compound `COc1nc2c(cc1C(=O)Nc1ccc(C(C)(C)C)cn1)CCCCC2` [Compound 37, N-(5-(tert.-butyl)pyridin-2-yl)-2-methoxy-6,7,8,9-tetrahydro-5H-cyclohepta[b]pyridine-3-carboxamide] gave an EC50 with CHIKV of 13.6 µM. For the same compound, the CC50 in series [1] was > 40 µM.

For the compound `COc1nc2c(cc1C(=O)Nc1ccc(C(C)(C)C)cc1)CCCCC2` [Compound 36, N-(4-(tert.-butyl)phenyl)-2-methoxy-6,7,8,9-tetrahydro-5H-cyclohepta[b]pyridine-3-carboxamide], the midpoint of the response in the series on CHIKV, the EC50, lay at 1.71 µM. Moreover, in series [1], the CC50 was > 40 µM.

The compound `COc1cc2c(cc1C(=O)Nc1ccc(-c3cc[nH]n3)cc1)CCCCC2` [Compound 19, N-(4-(1H-pyrazol-3-yl)phenyl)-3-methoxy-6,7,8,9-tetrahydro-5H-benzo[7]annulene-2-carboxamide] showed an EC50 with CHIKV of 3.65 µM. This compound also registered a CC50 in series [1] of 23.2 µM.

For the compound `COc1cc2c(cc1C(=O)Nc1cnc(C(C)(C)C)s1)CCCCC2` [Compound 9, N-(2-(tert.-butyl)thiazol-5-yl)-3-methoxy-6,7,8,9-tetrahydro-5H-benzo[7]annulene-2-carboxamide], the EC50 in the series with CHIKV is > 40 µM. Moreover, in series [1], the CC50 was > 40 µM.

In the case of `COc1cc2c(cc1C(=O)Nc1ccc(C(C)(C)C)s1)CCCCC2` [Compound 7, N-(5-(tert.-butyl)thiophen-2-yl)-3-methoxy-6,7,8,9-tetrahydro-5H-benzo[7]annulene-2-carboxamide], in the series on CHIKV, the EC50 is > 40 µM. Besides, in series [1], the CC50 is > 40 µM.

As for `CC(C)(C)c1ccc(NC(=O)c2cc3c(cc2O)NCCCC3)cc1` [Compound 28, N-(4-(tert.-butyl)phenyl)-8-hydroxy-2,3,4,5-tetrahydro-1H-benzo[b]azepine-7-carboxamide], in the series on CHIKV, the response was half-maximal at 1.47 µM (EC50). For the same compound, the CC50 in series [1] is > 40 µM.

Regarding `COc1cc2c(cc1C(=O)Nc1ccc(N3CCCS3(=O)=O)cc1)CCCCC2` [Compound 20, N-(4-(1,1-dioxidoisothiazolidin-2-yl)phenyl)-3-methoxy-6,7,8,9-tetrahydro-5H-benzo[7]annulene-2-carboxamide], the EC50 in the series with CHIKV is > 5 µM. Moreover, in series [1], the CC50 is > 40 µM.

As for `COc1nc2c(cc1C(=O)Nc1ncc(C(C)(C)C)cn1)CCCCC2` [Compound 38, N-(5-(tert.-butyl)pyrimidin-2-yl)-2-methoxy-6,7,8,9-tetrahydro-5H-cyclohepta[b]pyridine-3-carboxamide], in the series with CHIKV, the midpoint of the response, the EC50, lay at 19.4 µM. In series [1], the CC50 is > 40 µM.

In the series with CHIKV, `CC(C)(C)c1ccc(NC(=O)c2cc3c(cc2O)CCCCC3)nc1` [Compound 23, N-(5-(tert.-butyl)pyridin-2-yl)-3-hydroxy-6,7,8,9-tetrahydro-5H-benzo[7]annulene-2-carboxamide] displayed an EC50 of 3.8 µM. Also, the CC50 in series [1] is > 40 µM.

With `COc1cc2c(cc1C(=O)Nc1cc(-c3ccccc3)[nH]n1)CCCCC2` [Compound 25, 3-methoxy-N-(5-phenyl-1H-pyrazol-3-yl)-6,7,8,9-tetrahydro-5H-benzo[7]annulene-2-carboxamide], the EC50 with CHIKV was > 40 µM. Moreover, the CC50 in series [1] was > 40 µM.

`COc1cc2c(cc1C(=O)Nc1ccc(C(C)(C)C)cc1)CCCCN2` [Compound 29, N-(4-(tert.-butyl)phenyl)-8-methoxy-2,3,4,5-tetrahydro-1H-benzo[b]azepine-7-carboxamide] registered an EC50 in the series on CHIKV of 24.4 µM. Also, the CC50 in series [1] was > 40 µM.

With `CC(C)(C)c1ccc(NC(=O)c2cc3c(cc2O)CCCCC3)cc1` [Compound 2, N-(4-(tert.-butyl)phenyl)-3-hydroxy-6,7,8,9-tetrahydro-5H-benzo[7]annulene-2-carboxamide], in the series on CHIKV, the EC50 is 1.1 µM. Further, the CC50 in series [1] is 9.8 µM.

Values taken from patent publication US11066357B2, “Benzoannulene derivatives as antiviral agents” (Southern Research Institute, priority 2017, dated 2021).
